Results as given in paper PMC3172300, “Modulation of Catalytic Activity in Multi-Domain Protein Tyrosine Phosphatases” (PLoS ONE, 2011).
Where two headings read alike, the source gives them in different places. Square brackets hold non-standard residues; d marks the D form. Ends that are not written are not given here. Peptide text beside a SMILES is read from it. pY = N[C@@H](Cc1ccc(OP(=O)(O)O)cc1)C(=O)O

How the values were obtained:
[1] = target: T1, DLAR D1D2 (Drosophila melanogaster, UniProt P16621); experiment: Dephosphorylation of phosphotyrosine peptides (malachite green), DLAR D1D2; format: biochemical; conditions: for Vmax / Kcat / Kcat/Km / Km: 0.01 µM protein; for Vmax: 25 mM citrate buffer pH 6.0, 100 mM NaCl, 2 mM DTT, 15 min at 25°C, Biomol Green, 650 nm, Michaelis-Menten fit; for Kcat / Kcat/Km / Km: 25 mM citrate pH 6.0, 15 min at 25°C, malachite green; for substrate preference: order of peptide substrates, DLAR D1D2
T1 construct: DLAR 1448-2029; His tag (pET-15b or pET-22b); made in house; host or cells: E. coli BL21(DE3)
T1 sequence (P16621 1448-2029): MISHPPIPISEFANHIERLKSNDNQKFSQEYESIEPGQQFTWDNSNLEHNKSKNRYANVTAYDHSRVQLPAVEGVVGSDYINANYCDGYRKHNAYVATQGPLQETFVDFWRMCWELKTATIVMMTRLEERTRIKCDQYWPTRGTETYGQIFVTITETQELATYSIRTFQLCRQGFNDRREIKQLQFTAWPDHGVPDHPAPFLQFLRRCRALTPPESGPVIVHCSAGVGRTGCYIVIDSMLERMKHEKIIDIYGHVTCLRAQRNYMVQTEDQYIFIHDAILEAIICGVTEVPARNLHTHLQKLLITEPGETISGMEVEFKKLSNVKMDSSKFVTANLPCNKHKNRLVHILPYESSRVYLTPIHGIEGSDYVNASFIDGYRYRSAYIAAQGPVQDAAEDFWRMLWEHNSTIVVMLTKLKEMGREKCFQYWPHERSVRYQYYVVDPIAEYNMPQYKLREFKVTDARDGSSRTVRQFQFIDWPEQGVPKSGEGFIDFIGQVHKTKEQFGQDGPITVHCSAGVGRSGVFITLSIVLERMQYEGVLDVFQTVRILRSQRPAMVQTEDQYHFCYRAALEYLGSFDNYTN
Text: (§1) Substrates of PTPs characterized thus far include the activation loop segments of various kinases and regulatory loops of other signaling proteins. Suitably designed peptide substrates mimic the physiologically relevant substrates of PTPs. In the present study, peptide substrates were designed for DLAR for which more information was available on its interacting partners. […] The five peptides were chosen based on their distinct charge distributions around the central phosphotyrosine residue. The phosphorylated as well as non-phosphorylated peptides were obtained from GL Bioscience, China. The peptides were >95% pure and were used after a single round of desalting using a Sephadex G25 column (GE Healthcare). The concentration of the peptide samples for biochemical studies was ascertained by UV absorption at 268 nm for the pY residue.
(§2) Phosphatase activity of the recombinant PTP domains was determined by using para-Nitrophenylphosphate (pNPP), a small molecule generic substrate, as well as phosphotyrosine containing peptides. The pNPP assay was performed as reported previously, with a modification in the buffer composition (25 mM Citrate, Glycine and HEPES (CGH), pH 6.5, 100 mM NaCl and 2 mM DTT). Phosphatase activity with the phosphotyrosine peptides was ascertained by the malachite green reaction as described for PTPs previously. Briefly, the reaction mixture comprised of 0.01 µM protein incubated with increasing concentrations of different peptides in 25 mM citrate buffer pH 6.0, 100 mM NaCl and 2 mM DTT for 15 min at 25°C. The reaction was stopped by the addition of the Biomol Green reagent (Enzo Life Sciences) and the colour developed after 20 min was quantified at 650 nm. For all the assays, kinetic constants for the steady state catalysis were obtained by fitting the reaction curves to the Michaelis-Menten equation using the nonlinear regression module of Sigma plot software (Systat Software, Inc.).

[2] = target: T2, DLAR D1 (Drosophila melanogaster, UniProt P16621); experiment: Dephosphorylation of phosphotyrosine peptides (malachite green), DLAR D1; format: biochemical; conditions: for Vmax / Kcat / Kcat/Km / Km: 0.01 µM protein; for Vmax: 25 mM citrate buffer pH 6.0, 100 mM NaCl, 2 mM DTT, 15 min at 25°C, Biomol Green, 650 nm, Michaelis-Menten fit; for Kcat / Kcat/Km / Km: 25 mM citrate pH 6.0, 15 min at 25°C, malachite green; for peptide preference: order of peptide substrates, DLAR D1 domain
T2 construct: DLAR 1448-1746; His tag (pET-15b or pET-22b); made in house; host or cells: E. coli BL21(DE3)
T2 sequence (P16621 1448-1746): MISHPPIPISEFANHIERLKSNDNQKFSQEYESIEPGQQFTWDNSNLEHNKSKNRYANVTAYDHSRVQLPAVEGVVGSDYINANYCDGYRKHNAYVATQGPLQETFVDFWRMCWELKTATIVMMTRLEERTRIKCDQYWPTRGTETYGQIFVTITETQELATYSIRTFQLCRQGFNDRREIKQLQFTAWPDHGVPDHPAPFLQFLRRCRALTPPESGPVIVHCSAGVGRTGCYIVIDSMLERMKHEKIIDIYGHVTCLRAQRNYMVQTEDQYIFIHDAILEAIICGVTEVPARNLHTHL
Text: as §1, §2

[3] = target: T2, DLAR D1; experiment: Surface Plasmon Resonance peptide binding, DLAR D1; conditions: column first binding site, single-site model
Protocol: The binding of phosphotyrosine peptides to the PTP domains was studied by Surface Plasmon Resonance on a Biacore-2000 instrument (BIAcore, AB). All experiments were conducted at 25°C. DLAR PTP domains were immobilized onto carboxylated dextran CM5 chips (BIAcore AB) using the standard amine coupling procedure as recommended by the manufacturer. Binding and kinetic assays were performed in 10 mM HEPES, pH 8.0, 150 mM NaCl, 10 mM DTT and 3 mM EDTA at a flow rate of 5 µL/min. The peptides were used at concentrations ranging from 50–700 µM. Dissociation was initiated by replacing the analyte with buffer. The association and dissociation curves were monitored for 600 sec. Sensograms were analyzed with BIA-evaluation software version 2 (BIAcore AB). Sensograms for DLAR D1D2, DLAR D1HSSD2 and DLAR D1D2HSS were fitted to two-site binding equations. DLAR D1 and DLAR D2 sensograms were fitted using a single-site binding model.

[4] = system: D958C mutant of the D2 domain of PTP99A; experiment: Phosphatase assay using pNPP, PTP99A D2 D958C mutant; format: biochemical, Drosophila melanogaster; conditions: D958C point mutant
Protocol: as §2
Supplementary file pone.0024766.s005.tif: Figure S5 Characterization of the D958C mutant of the D2 domain of PTP99A. A: Size exclusion profile of wild-type and D958C mutant of the D2 domain of PTP99A. B: Circular Dichroism (CD) spectra of the wild type and D958C mutant. […]

Compound | Vmax [1] | Kcat [1] | Kcat/Km [1] | Km ([1]; read-out: Km) | substrate preference [1] | Vmax [2] | Kcat [2] | Kcat/Km [2] | Km ([2]; read-out: Km) | peptide preference [2] | kon ([3]; SPR Biacore-2000, 25°C, 10 mM HEPES pH 8.0, 150 mM NaCl, 10 mM DTT, 3 mM EDTA, peptides 50–700 µM, read-out: ka) | Kd ([3]; SPR, 25°C, pH 8.0) | Km [1] | Km [2] | phosphatase activity [4]
VIGD[pY]VCRLCK (cysteine pairing not given here) [Nervous Fingers peptide, phosphotyrosine peptide VIGDpYVCRLCK from PeptideMine server, obtained from GL Bioscience, >95% pure] | 12.41 ± 0.68 µmol/min/mg | 14.79 ± 0.81 s⁻¹ | 19.59 ± 0.11 x 10^4 sec^-1M^-1 | 75.5 ± 12.5 µM | Cuticle peptide>Insulin receptor peptide>Nervous fingers peptide>Abelson peptide>Myospheroid peptide | 37.5 ± 1.4 µmol/min/mg | 30 ± 1.12 s⁻¹ | 78.51 ± 0.09 x 10^4 sec^-1M^-1 | 38.2 ± 5.05 µM | Insulin receptor peptide>Cuticle peptide>Nervous fingers peptide>Myospheroid peptide>Abelson peptide | – | – | – | – | –
CDDS[pY]FGNKC (cysteine pairing not given here) [Myospheroid peptide, phosphotyrosine peptide CDDSpYFGNKC from PeptideMine server, obtained from GL Bioscience, >95% pure] | 13.86 ± 0.39 µmol/min/mg | 16.53 ± 0.47 s⁻¹ | 14.28 ± 0.05 x 10^4 sec^-1M^-1 | 116 ± 8.69 µM | Cuticle peptide>Insulin receptor peptide>Nervous fingers peptide>Abelson peptide>Myospheroid peptide | 29.58 ± 0.84 µmol/min/mg | 23.66 ± 0.67 s⁻¹ | 30.14 ± 0.06 x 10^4 sec^-1M^-1 | 78.5 ± 6.67 µM | Insulin receptor peptide>Cuticle peptide>Nervous fingers peptide>Myospheroid peptide>Abelson peptide | – | – | – | – | –
CC(C)C[C@H](NC(=O)[C@H](C)NC(=O)CNC(=O)[C@H](Cc1ccc(OP(=O)(O)O)cc1)NC(=O)[C@H](CC(=O)O)NC(=O)[C@@H]1CCCN1C(=O)[C@H](CCC(=O)O)NC(=O)[C@H](C)NC(=O)[C@@H](N)[C@@H](C)O)C(=O)N[C@@H](Cc1ccc(O)cc1)C(=O)N[C@@H](CCC(=O)O)C(=O)O [Cuticle peptide] (H-TAEPD[pY]GALYE-OH) | – | – | – | – | – | – | – | – | – | – | 18.6 ± 1.46 M⁻¹ s⁻¹ | 94.6 ± 0.33 µM | 105 ± 12.4 µM | 56.5 ± 4.64 µM | –
O=[N+]([O-])c1ccc(OP(=O)(O)O)cc1 [pNPP, para-Nitrophenylphosphate] | – | – | – | – | – | – | – | – | – | – | – | – | – | – | catalytically inactive
RDDT[pY]TAHAG [Abelson peptide, phosphotyrosine peptide RDDTpYTAHAG from PeptideMine server, obtained from GL Bioscience, >95% pure] | 3.39 ± 0.19 µmol/min/mg | 4.05 ± 0.22 s⁻¹ | 17.96 ± 0.16 x 10^4 sec^-1M^-1 | 22.6 ± 4.88 µM | Cuticle peptide>Insulin receptor peptide>Nervous fingers peptide>Abelson peptide>Myospheroid peptide | 4.95 ± 0.59 µmol/min/mg | 3.96 ± 0.68 s⁻¹ | 21.77 ± 0.32 x 10^4 sec^-1M^-1 | 18.2 ± 8.98 µM | Insulin receptor peptide>Cuticle peptide>Nervous fingers peptide>Myospheroid peptide>Abelson peptide | – | – | – | – | –
